Where two headings read alike, the source gives them in different places.
Tests used:
H460 lung carcinoma = assay: Cytotoxicity assay (MTT), 6 days; format: cell-based; settings: Homo sapiens, NCI-H460, 144 h, 6 days of treatment, read-out: Toxicity 6d (IC 50, μM) H460
Text: (§1) Four human tumoral cell lines, namely HCT116 colon adenocarcinoma, H460 lung carcinoma, MCF-7 and MDA-MB-231 breast carcinoma cell lines, and three immortalized but non tumorigenic cell lines, namely NIH3T3 mouse fibroblasts and human breast-derived MCF10-A and MRC-5 were purchased at ATCC and cultured according to their recommendations. In order to determine the cytotoxicity associated with one compound, a microculture tetrazolium assay (MTT), as described by Carmichael et al (Cancer Res, 1996) with modifications, was used. Briefly, 5.10^3 or 2.10^4 cells were seeded per well in 24-well plates 24 hours before drug addition. Cells were treated with 0, 1, 10, 17.5, 25 and 50 μM of compound solubilized in DMSO, adjusting the total volume of DMSO (Dimethylsulfoxide) to 1%. Forty-eight hours or 6 days after treatment, the medium was replaced by PBS containing 0.5 mg/ml MTT (Sigma) and cells were incubated for 3 more hours at 37° C. before solubilization of formazan crystals in 100% DMSO. Absorbance was measured using a spectrophotometer at a wavelength of 550 nm. Cell surviving fraction and 50% inhibitory concentration were calculated. All assays were performed in triplicate.

MCF-7 breast carcinoma = assay: Cytotoxicity assay (MTT), 6 days; format: cell-based; settings: Homo sapiens, MCF7, 144 h, 6 days of treatment, read-out: Toxicity 6d (IC 50, μM) MCF7
Text: as §1

MCF10-A = assay: Cytotoxicity assay (MTT), 6 days; format: cell-based; settings: Homo sapiens, MCF-10A, 144 h, 6 days of treatment, read-out: Toxicity 6d (IC 50, μM) MCF10-A
Text: as §1

[1] = tested on: MDA-MB-231 breast carcinoma; assay: Cytotoxicity assay (MTT), 6 days; format: cell-based; settings: Homo sapiens, MDA-MB-231, 144 h, 6 days of treatment, read-out: Toxicity 6d (IC 50, μM) MDA231
Text: as §1

NIH3T3 mouse fibroblasts = assay: Cytotoxicity assay (MTT), 6 days; format: cell-based; settings: NIH3T3, 144 h, 6 days of treatment, read-out: Toxicity 6d (IC 50, μM) NIH3T3
Text: as §1

[2] = tested on: HCT116 colon adenocarcinoma; assay: Cytotoxicity assay (MTT), 6 days; format: cell-based, human; settings: 6 days of treatment, read-out: Toxicity 6d (IC 50, μM) HCT116
Text: as §1

Ras = assay: Ras-dependant signaling pathway analysis (reporter system); format: cell-based; set-up: key: −: no effect of the compound was observed; +: an effect of the compound was observed
Protocol: (§2) The impact of the compounds on Ras and Rac signaling pathways was analysed with two reporter systems described by Imler (Nature 1988) and Lin (Science, 1995) respectively on one hand, and by a colony formation assay in the presence of constitutively activated Ras (RasV12) and Rac (RacV12) on the other hand. For this latter experiment, fifty percent confluent NIH3T3 cells in a 10 cm diameter petri dish were transfected with 0.5 μg pSV2-RasV12 or 0.5 μg pEXV RacV12 plasmids plus 100 ng of pSV2-neomycin plasmid using Lipofectamine-Plus reagent (Invitrogen) according to the manufacturer's instructions. Forty-eight hours later, cells were trypsinised, splitted to ⅓, and incubated in the presence of complete medium supplemented with 400 μg/ml geneticin (Invitrogen) and different doses of compound (1, 10, 17.5, 25 and 50 μM) until emerging resistant clones appear (2-3 weeks). The medium was renewed every 3 days. Colonies with a minimum of 50 cells were counted after staining with Fuschin 2%.

cell architecture = assay: Cell architecture modification, phase contrast; format: cell-based; set-up: key: −: no effect of the compound was observed; +: an effect of the compound was observed
HCT116 cells = assay: Anchorage-independent growth assay (soft agar / Matrigel); format: cell-based, human; settings: Homo sapiens, HCT-116, 168 h; HCT116, 3-dimensional growth, 1 week
Protocol: In order to evaluate the effect of the compounds on the capacity of tumor cells to grow without anchorage, HCT116 cells were seeded either in agar or in Matrigel (BD, France). For 3D growth experiment in soft agar in 24-well plates, 5.10^3 HCT116 cells were resuspended in 250 μl of complete medium containing 0.3% soft-agar (Difco) and different concentrations of compound (0.1, 1, 10, 17.5, 25 and 50 μM). Cells were then poured on a solidified layer of medium containing 0.5% of soft-agar plus the compound at the same concentration than in the upper layer. Cells were incubated at 37° C. for 1 week before they were analysed using a phase contrast microscope (Nikon). For 3D growth experiment in Matrigel, 10^4 HCT116 cells were resuspended in 300 μl of complete medium containing 5 mg/ml Matrigel (BD, France) and different concentrations of compound (0.1, 1, 10, 17.5, 25 and 50 μM), and poured in 24-well plates. After solidification at 37° C. for 15 min., complete medium containing the compound was added to each well. Cells were incubated for 1 week before they were collected using Matrisperse (BD, France) according to the manufacturer's instructions. After recovery, alive cells were counted with trypan blue exclusion.

HCT116 = assay: Cell viability assay (MTT), Example 32; format: cell-based, human; settings: for IC50: Homo sapiens, HCT-116, 144 h, day 6, 10% FBS
Protocol: FIG. 7: Antiproliferative effect of compounds on HCT116 (top) and MDA-MB-231 (bottom) cell lines measured by MTT viability assay. 2.5 10^3 (HCT116) or 7.5 10^3 (MDA-MB-231) cells were seeded in 48-well plates in growth medium containing 10% FBS, with or without various concentrations of test compounds. Cell cultures were fed every 3 days with the appropriate media. Cell viability was determined on day 6. Data were analyzed and IC50s were calculated from the dose-response curves using GraphPad Prism.
In order to determine one compound effect on cell viability, microculture tetrazolium assay (MTT) was performed as described by Carmichael et al., (1996) with modifications. Four human tumoral cell lines, namely HCT116 colon adenocarcinoma, H460 lung carcinoma, MCF-7 and MDA-MB-231 breast carcinoma cell lines, and 3 immortalized but non tumorigenic cell lines, namely NIH3T3 mouse fibroblasts and human breast-derived MCF10-A and human lung-derived MRC-5 were purchased at ATCC and cultured according to their recommendations. Briefly, 2.5 10^3 to 2 10^4 cells per well were seeded in 48-well plates 24 hours before drug addition. Cells were treated with 0 to 200 μM (11 concentrations) of compound solubilized in DMSO, adjusting the final concentration of DMSO to 1% in the well. Six days after treatment, the medium was replaced by PBS containing 0.5 mg/ml MTT (Sigma) and cells were incubated for 1-3 hours at 37° C. before solubilization of formazan crystals in 100% DMSO. Absorbance was measured using a spectrophotometer at a wavelength of 550 nm. Data was analyzed using the GraphPad Prism software (GraphPad Software, Inc., San Diego, USA), and IC50 (dose leading to 50% cell death) was calculated from the dose-response curves.

NIH3T3 cells = assay: Colony formation assay with constitutively activated Ras (RasV12) and Rac (RacV12); format: cell-based, mouse; set-up: key to Colony formation: −: no effect of the compound was observed; +: an effect of the compound was observed
Protocol: as §2

NIH3T3 = assay: Cytoskeleton analysis, actin staining (FITC-phalloidin); format: cell-based, mouse
Protocol: Since major rearrangements of cytoskeleton are observed in tumor cells and since the small GTPases are known to regulate these events, analysis of actin cytoskeleton was performed. Subconfluent cells seeded onto coverslips were treated with different concentration of compound (1, 10, 17.5, 25 and 50 μM) or vehicle for 24 h, before being fixed in 4% formaldehyde for 15 min., permeabilized in 0.2% Triton X100 for 5 minutes and incubated in PowerBlock (Biogenex) for 10 min. Actin filaments were stained with 0.5 μg/ml fluorescein isothiocyanate (FITC)-labelled phalloidin for 1 hour. Analysis was performed using an inverted fluorescent microscope.

MRC-5 = assay: Cytotoxicity assay (MTT), 6 days; format: cell-based; settings: Homo sapiens, MRC5, 144 h, 6 days of treatment, read-out: Toxicity 6d (IC 50, μM) MRC-5
Text: as §1

MDA-MB-231 cells [3] = assay: Matrigel invasion assay (Boyden chamber); format: cell-based, human; settings: MDA-MB-231, Boyden chamber, matrigel
Protocol: Chemoinvasion assay was performed in Boyden chamber as described by Albini et al (Cancer Res, 1987) with some modifications. Polycarbonate membranes with 8 μm pores were coated with matrigel (125 μg/cm^2) at room temperature for 48 h. Two hours before experiments, the matrix was […] with serum-free medium containing 0.1% BSA.
(§3) One day after seeding, 10^6 MDA-MB-231 cells were treated overnight with different concentrations of compounds (1, 10, 17.5, 25 and 50 μM). Cells were collected with Versene (Invitrogen), counted with trypan blue exclusion, rinsed twice in serum-free medium containing 0.1% BSA and resuspended in serum-free medium containing 0.1% BSA plus the appropriate concentration of compound. 10^5 treated cells were placed in the upper chamber. Medium containing 10% of FBS plus the appropriate concentration of compound was placed in the lower chamber as a chemoattractant. The Boyden chamber was incubated 6 hours at 37° C. before the cells were fixed and stained with Diff-Quick (Dade-Berhing). Cells on the upper part of the filters were removed using a cotton swab. Cells on the underside of the filters were visualised and counted under light microscope.

MDA-MB-231 cells [4] = assay: Migration assay (Boyden chamber, non-coated filters); format: cell-based, human; settings: MDA-MB-231, Boyden chamber
Protocol: as §3
The migration assay was performed the same way, using non-coated filters.

Row | SMILES | IC50 (H460 lung carcinoma) | IC50 (MCF-7 breast carcinoma) | IC50 [1] | IC50 (NIH3T3 mouse fibroblasts) | IC50 ([2]; Homo sapiens, HCT-116, 144 h) | IC50 (HCT116) | further results
1 | O=C(NCc1ccccc1)c1cc(=O)c(OCCCCCOc2ccc(Cl)cc2)co1 [EH28900, N-Benzyl-5-[5-(4-Chlorophenyloxy)pentyloxy]-4-oxo-4H-pyran-2-carboxamide] | 10 µM | 20 µM | 5 µM | 0.5 µM | ≤ 15 µM |  | IC50 (MCF10-A): 50 µM; IC50 [2]: 25 µM; Small GTPases activities Ras (Ras): −; Cell architecture modification phase contrast (cell architecture): −
2 | C/C=C/c1oc(CO)cc(=O)c1OCCCCCOc1cccc(Cl)c1 [EH16201, (E)-3-[5-(3-Chlorophenyloxy)pentyloxy]-6-(hydroxymethyl)-2-(propen-1-yl)-4H-pyran-4-one] | 20 µM | 25 µM | > 50 µM | 25 µM | 50 µM |  | IC50 (HCT116 cells): 12.5 µM
3 | C/C=C/c1oc(CO)cc(=O)c1OCCCCCOc1ccc(Cl)cc1CCC [EHT 1405, (E)-3-[5-(4-chloro-2-propyl-phenoxy)-pentyloxy]-6-hydroxymethyl-2-propenyl-4H-pyran-4-one] |  |  |  |  |  | 4 µM | 
4 | O=c1cc(CO)occ1OCCCCCn1cnc2c(Cl)ncnc21 [EHT 0248, 5-[5-(6-Chloro-purin-9-yl)-pentyloxy]-2-hydroxymethyl-4H-pyran-4-one] |  |  |  |  |  | > 100 µM | 
5 | O=c1cc(CO)occ1OCCCCCN1CCc2ccccc21 [EHT 8650, 5-[5-(2,3-Dihydro-indol-1-yl)-pentyloxy]-2-hydroxymethyl-4H-pyran-4-one] |  |  |  |  |  | > 100 µM | 
6 | C/C=C/c1oc(CO)cc(=O)c1OCCCCCOc1ccc(Cl)c(Cl)c1 [EH30101] | 35 µM | 45 µM | 30 to 35 µM | 0.1 to 0.5 µM | 50 µM |  | IC50 (HCT116 cells): 7.5 µM
7 | O=C(NC1CCCCC1)OCc1cc(=O)c(OCCCCCn2ccc3ccccc32)co1 [EHT 6231, Cyclohexyl-carbamic acid 5-(5-indol-1-yl-pentyloxy)-4-oxo-4H-pyran-2-ylmethyl ester] |  |  |  |  |  |  | IC50 fold higher as compared to compound EHT 7395 (HCT116; MTT, HCT116): 2 fold
8 | O=c1cc(CO)occ1OCCCCCOc1ccc(Cl)cc1 [EH15500, 5-[5-(4-Chlorophenyloxy)pentyloxy]-2-(hydroxymethyl)-4H-pyran-4-one] | 35 µM | > 50 µM | 15 µM |  | 50 µM |  | Small GTPases activities Ras (Ras): −; Colony formation (NIH3T3 cells): −; Cell architecture modification phase contrast (cell architecture): +; general morphology of NIH3T3 cells, as detected by β-actin staining (NIH3T3): affected; Cell architecture modification actin staining (R: ruffles; FC: focal complexes) NIH3T3 (NIH3T3; 24 h treatment): cell destructuration; melting point: 95 to 97 °C
9 | C/C=C/c1oc(CO)cc(=O)c1OCCCCCOc1ccccc1CCC [EH9301, (E)-6-(Hydroxymethyl)-2-(propen-1-yl)-3-[5-(2-propylphenyloxy)pentyloxy]-4H-pyran-4-one] | 25 µM | 20 µM | 25 µM | 50 µM | 20 µM |  | IC50 (MCF10-A): > 50 µM; IC50 (MRC-5): 35 µM; Invasion (MDA-MB-231 cells [3]): No effect; Colony formation (NIH3T3 cells): −; Cell architecture modification phase contrast (cell architecture): −; Migration (MDA-MB-231 cells [4]): no effect
10 | O=c1cc(COC2CCCCO2)occ1OCCCCCn1ccc2ccc(Cl)cc21 (centres unmarked) [EHT 8617, 5-[5-(6-Chloro-indol-1-yl)-pentyloxy]-2-(tetrahydro-pyran-2-yloxymethyl)-4H-pyran-4-one] |  |  |  |  |  | 1.5 to 4 µM | 
11 | C/C=C/c1oc(CO)cc(=O)c1OCCCCCOc1ccc(Cl)cc1 [EH26101, (E)-3-[5-(4-Chlorophenyloxy)pentyloxy]-6-(hydroxymethyl)-2(propen-1-yl)-4H-pyran-4-one] | 35 µM | > 50 µM | 40 to 45 µM | 1 to 5 µM | > 50 µM |  | IC50 (HCT116 cells): 50 µM
